Values joined by “and” are separate entries in the source; they are usually repeats but may differ in a detail not shown here. Equal values may be shown once.
Columns and labels:
overactive bladder = conditions: OAB patients; cited from earlier work
[1] = molecular target: T1, NK2 receptor of rabbit pulmonary artery (Oryctolagus cuniculus, UniProt P79218); test: Inhibition of NK2 receptor-mediated contraction of rabbit pulmonary artery (agonist BANK); conditions: endothelium removed, read-out: -log molar KB (converted)
T1 construct: The left and right branches of the pulmonary artery were obtained from each animal; from tissue; host or cells: rabbit pulmonary artery rings, endothelium removed
T1 sequence (P79218 1-384): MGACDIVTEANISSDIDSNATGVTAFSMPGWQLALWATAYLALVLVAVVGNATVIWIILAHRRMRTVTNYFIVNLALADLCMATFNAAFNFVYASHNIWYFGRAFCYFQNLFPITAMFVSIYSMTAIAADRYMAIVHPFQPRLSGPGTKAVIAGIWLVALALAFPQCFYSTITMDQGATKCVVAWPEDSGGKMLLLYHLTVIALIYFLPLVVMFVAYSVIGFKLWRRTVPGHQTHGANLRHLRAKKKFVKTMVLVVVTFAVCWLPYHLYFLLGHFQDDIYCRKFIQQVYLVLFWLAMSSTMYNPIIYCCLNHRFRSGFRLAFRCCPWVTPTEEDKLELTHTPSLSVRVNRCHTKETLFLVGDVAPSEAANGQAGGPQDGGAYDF
Method: Inhibition of NK2 Receptor-Mediated Contraction of Rabbit Pulmonary Artery:
Male New Zealand white rabbits were administered a lethal injection of Nembutal, (60 mg/kg) into a cannulated ear vein. Heparin, 0.0025 mL/kg of a 1000 U/ml solution, was injected into the ear vein prior to Nembutal in order to decrease blood coagulation. The left and right branches of the pulmonary artery were obtained from each animal. The segments, with or without endothelium, were suspended as rings in water-jacketed tissue baths maintained at 37° C. containing physiological salt solution of the following composition (mM): NaCl (119.0); KCl (4.6); CaCl2 (1.8); MgCl2 (0.5); NaH2PO4 (1.0); NaHCO3 (25.0); glucose (11.0); and gassed continuously with 95% O2-5% CO2. […] Changes in tension were measured on a Grass polygraph via Grass FT-03 force transducers.
(§1) To study NK2-mediated contraction, the vascular endothelium was removed and beta-Ala^8-NKA (“BANK”) was used as agonist. […] The response to each concentration of ASMSP was expressed as a percentage of the total relaxation induced by papaverine. […] Apparent KB values for the compound were calculated using the standard equation: KB=[antagonist]/(dose ratio−1), where dose ratio was equal to antilog [(−log molar EC50 without antagonist)−(−log molar EC50 with antagonist)]. The resulting KB values are expressed as −log molar KB.

NK1 receptors = molecular target: T2, NK1 receptors (Homo sapiens, UniProt P25103); test: Inhibition of binding of a tritiated derivative of SP in a tissue preparation selective for NK1 receptors; conditions: read-out: concentration at which 50% inhibition of binding of SP was achieved
T2 construct: from tissue; host or cells: unnamed tissue preparation selective for NK1 receptors
T2 sequence (P25103 whole entry): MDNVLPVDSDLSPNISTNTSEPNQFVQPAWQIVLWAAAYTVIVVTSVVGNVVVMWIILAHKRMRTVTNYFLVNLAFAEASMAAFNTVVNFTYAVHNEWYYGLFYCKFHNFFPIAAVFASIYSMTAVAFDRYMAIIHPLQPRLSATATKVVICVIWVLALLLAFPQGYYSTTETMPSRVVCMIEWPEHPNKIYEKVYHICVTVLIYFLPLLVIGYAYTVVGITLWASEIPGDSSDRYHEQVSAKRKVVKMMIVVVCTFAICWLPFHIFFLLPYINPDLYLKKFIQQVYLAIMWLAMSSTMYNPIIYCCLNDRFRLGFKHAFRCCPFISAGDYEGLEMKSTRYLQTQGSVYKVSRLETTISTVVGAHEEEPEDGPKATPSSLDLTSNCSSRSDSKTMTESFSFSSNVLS
Text: The specificity of inhibition by the Compound was shown by inhibiting the binding of tritiated NKA at the NK2 receptor compared to inhibition of binding of a tritiated derivative of SP in a tissue preparation selective for NK1 receptors.

NK1 receptor = test: NK1 receptor-mediated relaxation of rabbit pulmonary artery induced by ASMSP
Method: Male New Zealand white rabbits were administered a lethal injection of Nembutal, (60 mg/kg) into a cannulated ear vein. Heparin, 0.0025 mL/kg of a 1000 U/ml solution, was injected into the ear vein prior to Nembutal in order to decrease blood coagulation. The left and right branches of the pulmonary artery were obtained from each animal. The segments, with or without endothelium, were suspended as rings in water-jacketed tissue baths maintained at 37° C. containing physiological salt solution of the following composition (mM): NaCl (119.0); KCl (4.6); CaCl2 (1.8); MgCl2 (0.5); NaH2PO4 (1.0); NaHCO3 (25.0); glucose (11.0); and gassed continuously with 95% O2-5% CO2. Initial tension placed on each tissue was 2 gm, which was maintained throughout a 0.5 hour equilibration period. Changes in tension were measured on a Grass polygraph via Grass FT-03 force transducers.
as §1

BANK-induced dyspnea = BANK-induced dyspnea in conscious guinea pigs; format: in vivo, guinea pig; conditions: for ED50: Cavia porcellus
Method: Dyspnea (labored abdominal breathing) was induced in conscious guinea pigs by aerosol administration of BANK, as previously described (Kusner, et al. Euro. J. Pharmacol. 210:299-306,1992). All animals were pretreated with atropine, 10 mg/kg ip 45 minutes; indomethacin, 10 mg/kg ip 30 minutes; propranolol, 5 mg/kg ip 30 minutes; and thiorphan, 1 mg/ml aerosol for 5 minutes duration, starting 15 minutes prior to challenge in order to block muscarinic receptors, cyclooxygenase, beta-adrenergic receptors, and neutral endopeptidase (EC 3.4.24.11), respectively. Animals were pretreated with Compound or vehicle at appropriate times before challenge with aerosolized BANK for 780 seconds. BANK was administered to six animals simultaneously by being aerosolized with a DeVilbiss ultrasonic nebulizer into an air stream flowing into a Plexiglas chamber at a rate of 2 liter/min. The time required for dyspnea to occur was recorded for each animal. […] Vehicle pretreated control animals were included in each experiment. Results are reported in % protection values where: [formula]

[2] = molecular target: T3, NK2 receptor, human bronchus (Homo sapiens, UniProt P21452); test: NK2 receptor antagonism in human bronchus; conditions: read-out: -log molar KB (converted)
T3 construct: from tissue; host or cells: human bronchus
T3 sequence (P21452 1-398): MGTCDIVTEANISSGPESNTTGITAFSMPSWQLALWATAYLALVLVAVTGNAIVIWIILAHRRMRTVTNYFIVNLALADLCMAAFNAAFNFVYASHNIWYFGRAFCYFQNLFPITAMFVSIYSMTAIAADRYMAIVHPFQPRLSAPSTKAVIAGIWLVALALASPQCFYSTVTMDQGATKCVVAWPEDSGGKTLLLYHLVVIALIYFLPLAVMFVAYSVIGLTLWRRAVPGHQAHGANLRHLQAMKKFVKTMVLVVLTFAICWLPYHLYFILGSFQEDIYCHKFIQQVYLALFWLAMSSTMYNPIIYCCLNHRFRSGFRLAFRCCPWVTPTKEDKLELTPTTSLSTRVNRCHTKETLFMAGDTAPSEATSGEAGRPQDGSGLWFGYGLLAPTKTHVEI

[3] = Side-effects in laboratory test animals; format: in vivo; conditions: several multiples of the minimum effective dose
[4] = system: BANK-induced bladder contraction; test: In vivo bladder contraction inhibition in rats (BANK-induced); set-up: species or system rat
[5] = system: BANK-induced bronchoconstriction; test: Pulmonary mechanics in anesthetized guinea pigs, BANK-induced bronchoconstriction; format: in vivo, guinea pig
human NK2 receptor = molecular target: T4, human NK2 receptor (Homo sapiens, UniProt P21452); test: Neurokinin receptor binding assay, 3H-NKA binding to MEL cell membranes; conditions: tritiated NKA; read-out: Ki, concentration at which 50% inhibition of binding of NKA was achieved
T4 construct: expressed in transfected cells; host or cells: Mouse Erythroleukemia (MEL) cells, membrane preparation (MELM)
T4 sequence (P21452 1-398): T3 sequence (P21452 1-398)

Row | SMILES | adverse effects (primarily dry mouth), share of the patient population (overactive bladder) | Kb [1] | IC50 (NK1 receptors) | antagonism of relaxation induced by ASMSP (NK1 receptor; endothelium intact, phenylephrine-contracted) | selectivity, KB against NK1 receptor-mediated response versus NK2 receptor-mediated response (NK1 receptor; rabbit pulmonary artery) | protection half-life against BANK-induced dyspnea (BANK-induced dyspnea; 2 mg/kg dose, duration of action studies) | ED50 (BANK-induced dyspnea; intravenously 30 min prior to challenge) | ED50 (BANK-induced dyspnea; oral administration 120 min before challenge) | Maximum efficacy (% protection) (BANK-induced dyspnea; intravenous, 0.3 μmol/kg) | Maximum efficacy (% protection) (BANK-induced dyspnea; oral dose of 3.0 μmol/kg) | Kb [2] | untoward side-effects [3] | maximum efficacy ([4]; […] (1.8 mg/kg) against intravenous BANK (3 nmol/kg)) | activity in bladder contraction test ([4]; intravenously and orally, 0.2 to 5 μmol/kg body weight) | Duration of action ([4]; oral 1.2 μmol/kg) | half-life of action ([4]; oral 1.2 μmol/kg) | maximum efficacy ([4]; oral, 5 μmol/kg (2.5 mg/kg)) | rightward shift of the response curves for BANK ([5]; intravenously at 30 min before BANK) | rightward shift in the BANK-induced dose-response curve ([5]; oral 120 min before BANK) | Ki (human NK2 receptor)
1 | CCN(CC)CC#CCOC(=O)C(O)(c1ccccc1)C1CCCCC1 (stereo not drawn) [oxybutinin] | approximately 78% | – | – | – | – | – | – | – | – | – | – | – | – | – | – | – | – | – | – | –
2 | CN(C[C@@H](CCN1CCC(N2CCCNC2=O)CC1)c1ccc(Cl)c(Cl)c1)C(=O)c1ccccc1 [the Compound, (S)-N-[2-(3,4-dichlorophenyl)-4-[4-(2-oxoperhydropyrimidin-1-yl)piperidino]butyl]-N-methylbenzamide] | – | 0.891 nM | 187 nM | minor antagonism | 1,096 fold | 2.43 h | 0.13 µmol/kg and 0.07 mg/kg | 0.75 µmol/kg and 0.39 mg/kg | 95% | 100% | 2.4 nM | has not been found to show any indication of any untoward side-effects | approximately 100% | active and selective | about 6 hr | ~3.5 h | about 80% | ~196 fold | ~481 fold | 1.25 nM
3 | Cc1ccc(O)c([C@H](CCN(C(C)C)C(C)C)c2ccccc2)c1 [tolterodine] | ~39% | – | – | – | – | – | – | – | – | – | – | – | – | – | – | – | – | – | – | –

Reference: patent US20030139433A1, “Method for the treatment of overactive bladder” (priority 2000, published 2003)
